Results on 27 molecules are retold here after the supplement of paper PMC12613149.

Data set [1] is described as follows: reversed-phase LC retention time (C18, 15 min MeOH gradient); higher = more hydrophobic / later elution. On the procedure:
(§1)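 Reference mixture of environmental contaminants analysed by RP-LC (BEH C18, 50 °C; ESI+ with water/MeOH plus formic acid and ammonium formate, ESI- with ammonium bicarbonate) coupled to a timsTOF Pro 2 with trapped ion mobility in nitrogen (ramp/accumulation 100 ms). CCS was calibrated with Agilent tune mix (CCS compendium) and averaged over five injections at 0.5-500 ng/mL. The table reports the lowest-CCS (putative monomer) peak; retention times are on the same gradient.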

Data set [2] can be described thus: collision cross section (TIMS, N2 drift gas) of the primary ion; higher = larger gas-phase ion size. Here is the method: as §1
The mark [3] stands for this setting: ionization mode: ESI+, ion species: [M+H]+.
Where [4] appears, read: ionization mode: ESI-, ion species: [M-H]-.

For the molecule `CC1(C)CC(O)CC(C)(C)N1CCO` [4-Hydroxy-1-(2-hydroxyethyl)-2,2,6,6-tetramethylpiperidine], the “reversed-phase LC retention time” value in data set [1] (setting [3]) stood at 2.23 min. In data set [2] (setting [3]), this molecule yielded a collision cross section of 143.1 Å².

Turning to `Oc1c(Cl)cc(-c2ccc(Cl)cc2)cc1Cl` [4-Hydroxy-3,4',5-trichlorobiphenyl], the “reversed-phase LC retention time” value in data set [1] (setting [4]) came out at 15.5 min. Further, in data set [2] (setting [4]), the collision cross section worked out at 154.17 Å².

`O=C(c1ccccc1)c1ccc(O)cc1` [4-Hydroxybenzophenone]: the “reversed-phase LC retention time” value in data set [1] (setting [4]) is 12 min. For the same molecule, the collision cross section in data set [2] (setting [4]) turned out to be 144.47 Å².

Consider `Oc1cccc2[nH]nnc12` [4-Hydroxybenzotriazole], for which the “reversed-phase LC retention time” value in data set [1] (setting [3]) is 5.99 min. Moreover, in data set [2] (setting [3]), the collision cross section is on record as 123.13 Å².

Take `Oc1ccnc2ccccc12` [4-Hydroxyquinoline]: the “reversed-phase LC retention time” value in data set [1] (setting [3]) came to 6.72 min; in data set [1] (setting [4]), 6.7 min. Besides, the collision cross section in data set [2] (setting [3]) turned out to be 124.53 Å²; in data set [2] (setting [4]) it was 122.52 Å².

For `CC(C)(C)CC(C)(C)c1ccc(O)cc1` [4-tert-Octylphenol], the “reversed-phase LC retention time” value in data set [1] (setting [4]) worked out at 17.3 min. In data set [2] (setting [4]), this molecule displayed a collision cross section of 156.39 Å².

For `Nc1cccc2cc(S(=O)(=O)O)ccc12` [5-Aminonaphthalene-2-sulfonic acid], the “reversed-phase LC retention time” value in data set [1] (setting [4]) was determined as 4.88 min. This molecule registered a collision cross section in data set [2] (setting [4]) of 147.46 Å².

For `c1ccc2c(c1)[nH]c1ccncc12` [5-Carboline], the entries for the “reversed-phase LC retention time” value in data set [1] (setting [3]) and in data set [1] (setting [4]) were 7.64 min and 11.6 min, respectively. For the same molecule, the values for the collision cross section in data set [2] (setting [3]) and in data set [2] (setting [4]) were 132.8 Å² and 129.23 Å², respectively.

Consider `Clc1ccc2n[nH]nc2c1` [5-Chlorobenzotriazole], for which the “reversed-phase LC retention time” value in data set [1] (setting [4]) came out at 9.28 min. In data set [2] (setting [4]), this molecule returned a collision cross section of 120.9 Å².

`O=S(=O)(O)c1cccc2c(O)cccc12` [5-Hydroxy-1-naphthalenesulfonic acid]: the “reversed-phase LC retention time” value in data set [1] (setting [4]) was 2.41 min. In data set [2] (setting [4]), this molecule registered a collision cross section of 143.15 Å².

Consider `Cc1ccc2[nH]nnc2c1` [5-Methyl-1H-benzotriazole], for which, in data set [1] (setting [3]), the “reversed-phase LC retention time” value came out at 9.87 min. Moreover, the collision cross section in data set [2] (setting [3]) stood at 123.85 Å².

As for `O=C(O)c1cc(C(=O)O)cc([N+](=O)[O-])c1` [5-Nitroisophthalic acid], in data set [1] (setting [4]), the “reversed-phase LC retention time” value was found to be 0.96 min. In data set [2] (setting [4]), this molecule had a collision cross section of 137.91 Å².

In the case of `COc1cc2nc(N3CCNCC3)nc(N)c2cc1OC` [6,7-Dimethoxy-2-(piperazin-1-yl)quinazolin-4-amine], the “reversed-phase LC retention time” value in data set [1] (setting [3]) amounted to 6.11 min. Moreover, the collision cross section in data set [2] (setting [3]) turned out to be 172.06 Å².

As to `CC(C)N1C(=O)c2cc(O)ccc2NS1(=O)=O` [6-Hydroxybentazone], the “reversed-phase LC retention time” value in data set [1] (setting [4]) was 5.24 min. For the same molecule, the collision cross section in data set [2] (setting [4]) came to 149.95 Å².

Regarding `S=c1nc[nH]c2nc[nH]c12` [6-Mercaptopurine], the “reversed-phase LC retention time” value in data set [1] (setting [3]) amounted to 2.22 min. In data set [2] (setting [3]), this molecule showed a collision cross section of 126.69 Å².

As to `CCCc1cc(=O)[nH]c(=S)[nH]1` [6-Propyl-2-thiouracil], the “reversed-phase LC retention time” value in data set [1] (setting [4]) stood at 6.69 min. In data set [2] (setting [4]), this molecule came in with a collision cross section of 133.88 Å².

As to `O=P(O)(OCCC(F)(F)C(F)(F)C(F)(F)C(F)(F)C(F)(F)C(F)(F)F)OCCC(F)(F)C(F)(F)C(F)(F)C(F)(F)C(F)(F)C(F)(F)F` [6:2 Fluorotelomer phosphate diester], the “reversed-phase LC retention time” value in data set [1] (setting [4]) came to 17.6 min. The molecule also had a collision cross section in data set [2] (setting [4]) of 232.73 Å².

As to `O=S(=O)(O)CCC(F)(F)C(F)(F)C(F)(F)C(F)(F)C(F)(F)C(F)(F)F` [6:2 fluorotelomer sulfonic acid], in data set [1] (setting [4]), the “reversed-phase LC retention time” value was found to be 14.7 min. This molecule also gave a collision cross section in data set [2] (setting [4]) of 168.03 Å².

On to `CC(C)CC(C)NC1=CC(=O)C(Nc2ccccc2)=CC1=O` (stereo not given) [6PPD-Quinone], for which the “reversed-phase LC retention time” value in data set [1] (setting [3]) was 15.6 min. The molecule further gave a collision cross section in data set [2] (setting [3]) of 181.85 Å².

For the molecule `C[C@H]1C[C@@H]2[C@H]([C@@H](O)C[C@@]3(C)[C@H]2CC[C@]3(O)C(=O)CO)[C@@]2(C)C=CC(=O)C=C12` [6alpha-Methylprednisolone], in data set [1] (setting [3]), the “reversed-phase LC retention time” value was determined as 13.3 min. The molecule further displayed a collision cross section in data set [2] (setting [3]) of 190.78 Å².

As for `CCNc1ccc2c(C)cc(=O)oc2c1` [7-(Ethylamino)-4-methylcoumarin], the “reversed-phase LC retention time” value in data set [1] (setting [3]) was 12.2 min. The collision cross section in data set [2] (setting [3]) is recorded as 142.36 Å².

As for `Cc1cc(=O)oc2cc(N)ccc12` [7-Amino-4-methylcoumarin], in data set [1] (setting [3]), the “reversed-phase LC retention time” value turned out to be 9.22 min. Further, the collision cross section in data set [2] (setting [3]) is recorded as 131.77 Å².

On to `CCN(CC)c1ccc2c(C)cc(=O)oc2c1` [7-Diethylamino-4-methylcoumarin], for which, in data set [1] (setting [3]), the “reversed-phase LC retention time” value is 14.3 min. The molecule also returned a collision cross section in data set [2] (setting [3]) of 152.41 Å².

With `C[C@@H](CCC(=O)O)C1CCC2C3C(=O)CC4C[C@H](O)CC[C@]4(C)C3CC[C@@]21C` (stereo not given in full) [7-Oxolithocholic acid], the figures for the “reversed-phase LC retention time” value in data set [1] (setting [3]) and in data set [1] (setting [4]) were 15.8 min and 14.3 min, respectively. Moreover, the collision cross section in data set [2] (setting [3]) was determined as 204.58 Å²; in data set [2] (setting [4]), 208.67 Å².

With `NC(=O)N1c2ccccc2C(O)C(O)c2ccccc21` (stereo not given) [10,11-Dihydro-10,11-dihydroxycarbamazepine], the “reversed-phase LC retention time” value in data set [1] (setting [3]) turned out to be 10.4 min. Further, the collision cross section in data set [2] (setting [3]) amounted to 157.4 Å².

In the case of `NC(=O)N1c2ccccc2CC(O)c2ccccc21` (stereo not given) [10,11-Dihydro-10-hydroxycarbamazepine], the “reversed-phase LC retention time” value in data set [1] (setting [3]) was determined as 10.7 min. The molecule further gave a collision cross section in data set [2] (setting [3]) of 154.89 Å².

Regarding `C[C@]12CC(=O)[C@H]3[C@@H](CCC4=CC(=O)CC[C@@]43C)[C@@H]1CC[C@@H]2O` [11-Ketotestosterone], the “reversed-phase LC retention time” value in data set [1] (setting [3]) amounted to 12.6 min. In data set [2] (setting [3]), this molecule had a collision cross section of 174.04 Å².
